Patent US20260274814A1, “THIENYL COMPOUNDS FOR THE TREATMENT OF A CENTRAL NERVOUS SYSTEM DISEASE OR DISORDER” (Coreterra Therapeutics, Inc., priority 2023, published 2026)
Counter-ions that a name gives are not always drawn. Like-named read-outs stand apart in the source and are kept apart here.

Tested on: mice
Experiment: Neuropharmacological Assay (SmartCube): automated behavioral signature of compound-treated mice compared with a database of reference drug classes
Assay type: in vivo
Details: for minimal effective dose: Mus musculus, ip; for minimal effective dose / MED (minimal effective dose): i.p., that dose is shown
Source text: Neurosci. 2011 Sep. 9; 5: 103 (doi: 10.3389/fnins.2011.00103) (“Roberds”). As reported in Roberds, because psychiatric diseases generally result from disorders of cell-cell communication or circuitry, intact systems are useful in detecting improvement in disease-relevant endpoints. These endpoints are typically behavioral in nature, often requiring human observation and interpretation. To facilitate testing of multiple compounds for behavioral effects relevant to psychiatric disease, PsychoGenics, Inc. (Tarrytown, NY, “PGI”) developed SmartCube™ an automated system in which behaviors of compound-treated mice are captured by digital video and analyzed with computer algorithms. (D. Brunner et al. Drug Discov. Today 2002, 7:S107-S112). PGI Analytical Systems uses data from SmartCube™ to compare the behavioral signature of a test compound to a database of behavioral signatures obtained using a large set of diverse reference compounds. (The composition of the database as well as validation of the method is further described in Roberds). In this way, the neuropharmacological effects of a test compound can be predicted by similarity to major classes of compounds, such as antipsychotics, anxiolytics and antidepressants.
The SmartCube™ system produces an activity signature indicating the probability that the activity of the test compound at the administered dose matches a given class of neuropharmacological agents. (See, e.g., Roberds, FIGS. 2 and 3). The test compound is simultaneously compared against multiple classes of agents; thus, a separate probability is generated for each behavioral effect measured (e.g., anxiolytic activity, analgesic activity, etc.). In table 2 below, these probabilities are reported for each behavioral effect measured as described in Table 1 below.
Provided compounds were dissolved in a mixture of Pharmasolve™ (N-methyl-2-pyrrolidone), polyethylene glycol and propylene glycol, and were injected i.p. 15 min. before the behavioral test. For each compound, injections were administered at 3 different doses. For each behavioral effect measured, results for the 3.0 mg/kg dose are presented. The potency of many of the compounds in the table was also determined in the SmartCube™ system. Test compounds were routinely examined at dose levels of 0.3, 1, 3 and 10 mg per kg (mpk), although the dose range was increased or decreased, if necessary, to obtain a full dose response curve. A compound's minimal effective dose (MED) is a measure of the compound's potency. The MED was defined as the dose (in mpk) having 45% or more total activity in SmartCube. If only one dose was tested, that dose is shown in the MED column of Table 2 even though the dose is not known to be the MED.

[1] = dose having 45% or more total activity in SmartCube, if only one dose was tested, read-out: MED (minimal effective dose)
[2] = probability that activity matches this class of agents, 3.0 mg/kg i.p., 15 min before test
[3] = SmartCube class probability, 3.0 mg/kg i.p., 15 min before test
[4] = SmartCube probability class, 3.0 mg/kg dose, i.p. 15 min before the behavioral test
[5] = dose having 45% or more total activity in SmartCube, if only one dose was tested, hydrochloride
[6] = probability that activity matches this class of agents, 3.0 mg/kg i.p., 15 min before test, hydrochloride, 3 mg/kg

CNC1CCc2cc(F)sc2C1 (racemic) [Compound 79, 2-fluoro-N-methyl-4,5,6,7-tetrahydrobenzothiophen-6-amine hydrochloride]
+ (≥4%): AP [2]
ND (^ <4%): AG [2] | AN [2] | CE [2] | HL [2] | MS [2] | PS [2] | SH [2] | UK [2]
++ (≥24%): AD [2] | AX [2]
1 mg/kg: minimal effective dose [1]

CNC1(C)CCc2cscc2C1 (racemic) [Compound 103, racemic N, 5-dimethyl-6,7-dihydro-4H-2-benzothiophen-5-amine hydrochloride]
1 mg/kg: minimal effective dose [1]
ND (^ <4%): AD [2] | AG [2] | AN [2] | AP [2] | AX [2] | CE [2] | HL [2] | MS [2] | PS [2] | SH [2]
+++ (≥49%): UK [2]

CNC1(C)COc2c(C)csc2C1 (racemic) [Compound 238, N, 3,6-trimethyl-6,7-dihydro-5H-thieno[3,2-b]pyran-6-amine hydrochloride]
++ (≥24%): UK [3]
ND (^ <4%): AD [3] | AG [3] | AN [3] | AP [3] | AX [3] | CE [3] | HL [3] | MS [3] | PS [3] | SH [3]
> 3 mg/kg: minimal effective dose (minimal effective dose: dose having 45% or more total activity in SmartCube, if only one dose tested, read-out: MED)

CNC1COc2scc(C(F)(F)F)c2C1 (racemic) [Compound 288, N-methyl-5-(trifluoromethyl)-3,4-dihydro-2H-thieno[2,3-b]pyran-3-amine hydrochloride]
> 3 mg/kg: minimal effective dose (minimal effective dose: dose having 45% or more total activity in SmartCube, if only one dose was tested, read-out: MED)
ND (^ <4%): AD [4] | AG [4] | AN [4] | AP [4] | AX [4] | CE [4] | HL [4] | MS [4] | PS [4] | SH [4] | UK [4]

CNC1CCc2ccsc2C1.Cl (single isomer, unassigned) [Compound 9, N-methyl-4,5,6,7-tetrahydrobenzothiophen-6-amine hydrochloride]
0.1 mpk: MED (minimal effective dose) [5]
++ (≥24%): AD [2] | AP [2]
+ (≥4%): AX [6] | CE [6] | HL [6] | PS [6]
ND (^ <4%): AG [2] | AN [2] | MS [2] | UK [2]

CNC1CCc2ccsc2C1.Cl (single isomer, unassigned) [Compound 10, N-methyl-4,5,6,7-tetrahydrobenzothiophen-6-amine hydrochloride]
ND (^ <4%): AG [2] | AN [2] | MS [2] | SH [2] | UK [2] | AX [6] | CE [6] | HL [6] | PS [6]
0.3 mpk: MED (minimal effective dose) [5]
++ (≥24%): AD [2] | AP [2]

CNC1CCc2sccc2C1.Cl (single isomer, unassigned) [Compound 11, N-methyl-4,5,6,7-tetrahydrobenzothiophen-5-amine hydrochloride]
ND (^ <4%): AG [2] | AN [2] | CE [2] | HL [2] | MS [2] | PS [2] | SH [2] | UK [2] | AD [6] | AX [6]
++++ (≥74%): AP [6]
0.3 mpk: MED (minimal effective dose) [5]

CNC1CCc2sccc2C1.Cl (single isomer, unassigned) [Compound 12, N-methyl-4,5,6,7-tetrahydrobenzothiophen-5-amine hydrochloride]
+ (≥4%): AP [6]
++ (≥24%): AD [6] | AX [6]
ND (^ <4%): AG [2] | AN [2] | CE [2] | HL [2] | MS [2] | PS [2] | SH [2] | UK [2]
1.0 mpk: MED (minimal effective dose) [5]

CNC1CCc2cscc2C1.Cl (single isomer, unassigned) [Compound 13, N-methyl-4,5,6,7-tetrahydro-2-benzothiophen-5-amine hydrochloride]
+++ (≥49%): AP [6]
0.3 mg/kg: minimal effective dose [1]
+ (≥4%): AX [2] | CE [6]
ND (^ <4%): AG [2] | AN [2] | HL [2] | MS [2] | PS [2] | SH [2] | UK [2] | AD [6]

CNC1CCc2cscc2C1.Cl (single isomer, unassigned) [Compound 14, N-methyl-4,5,6,7-tetrahydro-2-benzothiophen-5-amine hydrochloride]
+ (≥4%): AX [2] | AP [6]
0.3 mpk: MED (minimal effective dose) (dose having 45% or more total activity in SmartCube, if only one dose was tested)
++ (≥24%): AD [6]
ND (^ <4%): AG [2] | AN [2] | HL [2] | MS [2] | PS [2] | SH [2] | UK [2] | CE [6]

CN(C)C1CCc2ccsc2C1.Cl (single isomer, unassigned) [Compound 15, N,N-dimethyl-4,5,6,7-tetrahydrobenzothiophen-6-amine hydrochloride]
+++ (≥49%): AX [6]
ND (^ <4%): AD [2] | AG [2] | AN [2] | HL [2] | MS [2] | PS [2] | SH [2] | UK [2]
+ (≥4%): AP [6]
++ (≥24%): CE [6]
0.3 mpk: MED (minimal effective dose) [5]

CN(C)C1CCc2ccsc2C1.Cl (single isomer, unassigned) [Compound 16, N,N-dimethyl-4,5,6,7-tetrahydrobenzothiophen-6-amine hydrochloride]
ND (^ <4%): AD [2] | AG [2] | AN [2] | HL [2] | MS [2] | PS [2] | SH [2] | UK [2] | AP [6] | CE [6]
++++ (≥74%): AX [6]
1.0 mpk: MED (minimal effective dose) [5]

Cl.c1cc2c(s1)CC(N1CCCC1)CC2 (single isomer, unassigned) [Compound 17, 1-(4,5,6,7-tetrahydrobenzothiophen-6-yl)pyrrolidine hydrochloride]
+++ (≥49%): AP [6]
++++ (≥74%): AX [6]
ND (^ <4%): AG [2] | AN [2] | CE [2] | HL [2] | MS [2] | PS [2] | SH [2] | UK [2] | AD [6]
1.0 mpk: MED (minimal effective dose) [5]
